Test results reported in patent US20240150345A1, “GCN2 MODULATING COMPOUNDS AND USES THEREOF” (HiberCell, Inc., priority 2021, published 2024).

These molecules were tested against T1, GCN2 (Homo sapiens, UniProt Q9P2K8) (assay: TR-FRET biochemical assay for inhibition of GCN2 activity). Conditions: 2 nM GCN2, 100 nM GFP-eIF2α, 150 μM ATP, 1.5 hours at 25° C.
T1 construct: purchased Carma Biosciences (so in the source)
Experimental: Exemplary compounds from the above Examples were tested for ability to inhibit GCN2 activity using a time resolved fluorescence energy transfer (TR-FRET) assay. Assay procedures and results are described below for Examples 12-105.
GCN2 protein was obtained from Carma Biosciences (cat #05-153). The protein was diluted in assay buffer (ThermoFisher Scientific, #PV6135), 2 mM dithiothreitol (DTT), to obtain a final concentration of 2 nM and 5 μL was plated in a 384-well white assay plate. Test compounds were serially diluted to 11 concentrations by 3-fold dilution in DMS0 and 10 nL of stock was plated into 384 well white assay plate. DMS0 was used as a vehicle control. GFP-eIF2α protein was obtained from ThermoFisher (cat #PV4809). The protein was diluted in assay buffer to a 2× concentration of 200 nM along with 300 μM ATP (final concentration of 100 nM GFP-eIF2α and 150 μM ATP) in the presence of 2 mM DTT and a […] was added to each well containing the GCN2 protein and test compound. The plate was incubated in the dark at 25° C. for 1.5 hours, shaking at 1250 rpm. Tb-anti P-eIF2α (ThermoFisher cat #PV4815) was diluted to a to a concentration of 1 nM in TR-FRET Dilution Buffer (ThermoFisher cat #PV3574). 10 μL of the Tb-anti P-eIF2a solution was added to the TR-FRET reaction. The plate was incubated in the dark for 2 h at 25° C. shaking at 600 rpm. The FRET signal from the plate was read on a Envision (PerkinElmer) plate reader: • Label 1: Excitation: 340 nm, bandwidth 30 nm; Emission: 495 nm, bandwidth 10 nm. Lag time: 100 μsec. Integration time: 400 μsec. Flashes: 30. • Label 2: Excitation: 340 nm, bandwidth 30 nm; Emission: 520 nm, bandwidth 25 nm. Lag time: 100 μsec. Integration time: 400 μsec. Flashes: 30
The data were analyzed using GraphPad Prism employing a 4-parameter sigmoidal curve fit.

T1 sequence (Q9P2K8 whole entry): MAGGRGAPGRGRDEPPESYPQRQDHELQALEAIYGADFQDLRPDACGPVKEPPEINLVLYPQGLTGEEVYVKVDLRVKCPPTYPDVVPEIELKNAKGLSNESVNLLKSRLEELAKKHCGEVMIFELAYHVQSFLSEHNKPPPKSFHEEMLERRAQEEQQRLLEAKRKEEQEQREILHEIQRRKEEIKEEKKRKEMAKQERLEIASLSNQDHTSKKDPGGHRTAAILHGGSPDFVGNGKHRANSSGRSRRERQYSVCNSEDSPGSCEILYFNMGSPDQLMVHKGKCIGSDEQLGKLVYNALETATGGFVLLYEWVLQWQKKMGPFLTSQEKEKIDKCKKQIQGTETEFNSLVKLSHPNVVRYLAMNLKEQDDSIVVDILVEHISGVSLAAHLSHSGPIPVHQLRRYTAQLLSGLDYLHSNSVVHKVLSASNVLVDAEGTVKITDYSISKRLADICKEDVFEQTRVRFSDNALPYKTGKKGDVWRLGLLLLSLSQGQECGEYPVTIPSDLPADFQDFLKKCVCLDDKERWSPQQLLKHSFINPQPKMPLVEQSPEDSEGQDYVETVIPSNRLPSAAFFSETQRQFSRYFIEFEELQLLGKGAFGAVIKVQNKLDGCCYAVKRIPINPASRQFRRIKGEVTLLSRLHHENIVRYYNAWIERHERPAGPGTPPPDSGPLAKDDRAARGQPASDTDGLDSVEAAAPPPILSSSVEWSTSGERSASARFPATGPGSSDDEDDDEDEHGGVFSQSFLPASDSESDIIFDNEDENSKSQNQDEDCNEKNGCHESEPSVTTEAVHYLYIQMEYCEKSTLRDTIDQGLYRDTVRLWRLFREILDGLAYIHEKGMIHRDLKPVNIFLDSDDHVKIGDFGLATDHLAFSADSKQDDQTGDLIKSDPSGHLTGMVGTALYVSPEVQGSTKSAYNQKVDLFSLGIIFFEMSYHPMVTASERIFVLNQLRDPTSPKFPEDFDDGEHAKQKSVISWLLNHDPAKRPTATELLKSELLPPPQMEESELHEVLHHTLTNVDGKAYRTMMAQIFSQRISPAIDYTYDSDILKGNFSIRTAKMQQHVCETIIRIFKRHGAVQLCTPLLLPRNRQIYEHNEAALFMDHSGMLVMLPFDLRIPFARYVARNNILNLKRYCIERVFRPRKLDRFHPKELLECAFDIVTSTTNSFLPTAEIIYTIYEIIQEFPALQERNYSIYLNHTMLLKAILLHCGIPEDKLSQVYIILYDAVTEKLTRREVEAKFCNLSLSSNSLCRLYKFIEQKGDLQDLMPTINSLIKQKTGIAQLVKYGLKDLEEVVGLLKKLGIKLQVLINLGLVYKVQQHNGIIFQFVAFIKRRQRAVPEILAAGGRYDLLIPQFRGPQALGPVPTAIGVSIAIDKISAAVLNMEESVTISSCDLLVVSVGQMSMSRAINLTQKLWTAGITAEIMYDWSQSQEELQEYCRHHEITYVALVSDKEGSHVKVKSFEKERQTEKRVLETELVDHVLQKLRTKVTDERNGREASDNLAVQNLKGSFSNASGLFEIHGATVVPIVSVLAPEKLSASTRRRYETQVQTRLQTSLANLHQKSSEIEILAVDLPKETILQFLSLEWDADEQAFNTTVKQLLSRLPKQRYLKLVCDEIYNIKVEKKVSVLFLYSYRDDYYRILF

Compound | IC50 [nM]
CCc1n[nH]c2ncc(OCc3c(F)ccc(NS(=O)(=O)c4cc(F)cnc4C)c3F)cc12 [Compound 47, N-[3-[([3-ethyl-1H-pyrazolo[3,4-b]pyridin-5-yl]oxy)methyl]-2,4-difluorophenyl]-5-fluoro-2-methylpyridine-3-sulfonamide] | < 50
COc1ncc(Cl)cc1S(=O)(=O)Nc1ccc(F)c(COc2cnc3[nH]nc(C(C)C)c3c2)c1F [Compound 53, 5-chloro-N-[2,4-difluoro-3-[([3-isopropyl-1H-pyrazolo[3,4-b]pyridin-5-yl]oxy)methyl]phenyl]-2-methoxypyridine-3-sulfonamide] | < 50
COc1ncc(F)cc1S(=O)(=O)Nc1ccc(F)c(COc2cnc3[nH]nc(-c4ccccc4)c3c2)c1F [Compound 84, N-[2,4-difluoro-3-[([3-phenyl-1H-pyrazolo[3,4-b]pyridin-5-yl]oxy)methyl]phenyl]-5-fluoro-2-methoxypyridine-3-sulfonamide] | < 50
COc1ncc(F)cc1S(=O)(=O)Nc1ccc(F)c(COc2cnc3[nH]nc(C#N)c3c2)c1F [Compound 73, N-(3-(((3-cyano-1H-pyrazolo[3,4-b]pyridin-5-yl)oxy)methyl)-2,4-difluorophenyl)-5-fluoro-2-methoxypyridine-3-sulfonamide] | < 50
COc1ncc(F)cc1S(=O)(=O)Nc1ccc(F)c(COc2cnc3[nH]nc(C)c3c2)c1C#N [Compound 62, N-[2-cyano-4-fluoro-3-[([3-methyl-1H-pyrazolo[3,4-b]pyridin-5-yl]oxy)methyl]phenyl]-5-fluoro-2-methoxypyridine-3-sulfonamide] | 50 to 500
C#Cc1n[nH]c2ncc(OCc3c(F)ccc(NS(=O)(=O)c4cc(F)cnc4OC)c3F)cc12 [Compound 69, N-[3-[([3-ethynyl-1H-pyrazolo[3,4-b]pyridin-5-yl]oxy)methyl]-2,4-difluorophenyl]-5-fluoro-2-methoxypyridine-3-sulfonamide] | < 50
COc1ncc(Cl)cc1S(=O)(=O)Nc1ccc(F)c(CCc2cnc3c(N)nccn23)c1F [Compound 32, N-[3-(2-[8-aminoimidazo[1,2-a]pyrazin-3-yl]ethyl)-2,4-difluorophenyl]-5-chloro-2-methoxypyridine-3-sulfonamide] | < 50
COc1ncc(F)cc1S(=O)(=O)Nc1ccc(F)c(COc2cnc3[nH]ncc3c2)c1F [Compound 21, N-[2,4-difluoro-3-([1H-pyrazolo[3,4-b]pyridin-5-yloxy]methyl)phenyl]-5-fluoro-2-methoxypyridine-3-sulfonamide] | < 50
CNc1nccn2c(CCc3c(F)ccc(NS(=O)(=O)c4cc(Cl)cnc4OC)c3F)cnc12 [Compound 31, 5-chloro-N-(2,4-difluoro-3-(2-(8-(methylamino)imidazo[1,2-a]pyrazin-3-yl)ethyl)phenyl)-2-methoxypyridine-3-sulfonamide] | < 50
COc1ncc(F)cc1S(=O)(=O)Nc1ccc(F)c(COc2cnc3[nH]nc(C)c3c2Cc2ccccc2)c1F [Compound 89, N-[3-[([4-benzyl-3-methyl-1H-pyrazolo[3,4-b]pyridin-5-yl]oxy)methyl]-2,4-difluorophenyl]-5-fluoro-2-methoxypyridine-3-sulfonamide] | > 1000
COc1ncc(Cl)cc1S(=O)(=O)Nc1ccc(F)c(OCc2cnc3[nH]nc(C)c3c2)c1F [Compound 46, 5-chloro-N-[2,4-difluoro-3-([3-methyl-1H-pyrazolo[3,4-b]pyridin-5-yl]methoxy)phenyl]-2-methoxypyridine-3-sulfonamide] | < 50
COc1ncc(Cl)cc1S(=O)(=O)Nc1ccc(F)c(CCc2cnc3cnn(C(C)C)c3c2)c1F [Compound 35, 5-chloro-N-[2,4-difluoro-3-(2-[1-isopropylpyrazolo[4,3-b]pyridin-6-yl]ethyl)phenyl]-2-methoxypyridine-3-sulfonamide] | < 50
Cc1ncc(F)cc1S(=O)(=O)Nc1ccc(F)c(COc2cnc3[nH]nc(C)c3c2)c1F [Compound 38, N-[2,4-difluoro-3-[([3-methyl-1H-pyrazolo[3,4-b]pyridin-5-yl]oxy)methyl]phenyl]-5-fluoro-2-methylpyridine-3-sulfonamide] | < 50
COc1ncc(F)cc1S(=O)(=O)Nc1ccc(F)c(COc2cnc3[nH]c(=O)n(C)c3c2)c1F [Compound 71, N-[2,4-difluoro-3-[([1-methyl-2-oxo-3H-imidazo[4,5-b]pyridin-6-yl]oxy)methyl]phenyl]-5-fluoro-2-methoxypyridine-3-sulfonamide] | < 50
COc1ncc(Cl)cc1S(=O)(=O)Nc1ccc(F)c(COc2cnn3cncc3c2)c1F [Compound 60, 5-chloro-N-(2,4-difluoro-3-((imidazo[1,5-b]pyridazin-3-yloxy)methyl)phenyl)-2-methoxypyridine-3-sulfonamide] | < 50
Cc1ncc(F)cc1S(=O)(=O)Nc1ccc(F)c(COc2cnc3[nH]nc(C)c3c2)c1Cl [Compound 74, N-[2-chloro-4-fluoro-3-[([3-methyl-1H-pyrazolo[3,4-b]pyridin-5-yl]oxy)methyl]phenyl]-5-fluoro-2-methylpyridine-3-sulfonamide] | < 50
COc1ncc(C#N)cc1S(=O)(=O)Nc1ccc(F)c(COc2cnc3[nH]nc(C)c3c2)c1F [Compound 50, 5-cyano-N-[2,4-difluoro-3-[([3-methyl-1H-pyrazolo[3,4-b]pyridin-5-yl]oxy)methyl]phenyl]-2-methoxypyridine-3-sulfonamide] | < 50
COc1ncc(F)cc1S(=O)(=O)Nc1ccc(F)c(COc2cnc3[nH]nc(C)c3c2C2CCN(C)CC2)c1F [Compound 93, N-(2,4-difluoro-3-(((3-methyl-4-(1-methylpiperidin-4-yl)-1H-pyrazolo[3,4-b]pyridin-5-yl)oxy)methyl)phenyl)-5-fluoro-2-methoxypyridine-3-sulfonamide] | > 1000
COc1ncc(F)cc1S(=O)(=O)Nc1ccc(F)c(COc2cnc3[nH]nc(C(C)(F)F)c3c2)c1F [Compound 81, N-[3-([[3-(1,1-difluoroethyl)-1H-pyrazolo[3,4-b]pyridin-5-yl]oxy]methyl)-2,4-difluorophenyl]-5-fluoro-2-methoxypyridine-3-sulfonamide] | < 50
CNC(=O)c1cc(CCc2c(F)ccc(NS(=O)(=O)c3cc(Cl)cnc3OC)c2F)[nH]n1 [Compound 8, 5-[2-[3-(5-chloro-2-methoxypyridine-3-sulfonamido)-2,6-difluorophenyl]ethyl]-N-methyl-1H-pyrazole-3-carboxamide] | < 50
COc1ncc(Cl)cc1S(=O)(=O)Nc1ccc(F)c(COc2cnc3cnn(C)c3c2)c1F [Compound 42, 5-chloro-N-[2,4-difluoro-3-[([1-methylpyrazolo[4,3-b]pyridin-6-yl]oxy)methyl]phenyl]-2-methoxypyridine-3-sulfonamide] | < 50
COc1ncc(F)cc1S(=O)(=O)Nc1ccc(Cl)c(COc2cnc3[nH]nc(C)c3c2)c1F [Compound 78, N-(4-chloro-2-fluoro-3-(((3-methyl-1H-pyrazolo[3,4-b]pyridin-5-yl)oxy)methyl)phenyl)-5-fluoro-2-methoxypyridine-3-sulfonamide] | < 50
COc1ncc(Cl)cc1S(=O)(=O)Nc1ccc(F)c(COc2cnc3[nH]ncc3c2C#N)c1F [Compound 28, 5-chloro-N-[3-[([4-cyano-1H-pyrazolo[3,4-b]pyridin-5-yl]oxy)methyl]-2,4-difluorophenyl]-2-methoxypyridine-3-sulfonamide] | < 50
CCc1n[nH]c2ncc(OCc3c(F)ccc(NS(=O)(=O)c4cc(C#N)cnc4OC)c3F)cc12 [Compound 41, 5-cyano-N-[3-[([3-ethyl-1H-pyrazolo[3,4-b]pyridin-5-yl]oxy)methyl]-2,4-difluorophenyl]-2-methoxypyridine-3-sulfonamide] | < 50
COc1ncc(F)cc1S(=O)(=O)Nc1ccc(F)c(COc2cnc3[nH]nc(C)c3c2)c1Cl [Compound 61, N-[2-chloro-4-fluoro-3-[([3-methyl-1H-pyrazolo[3,4-b]pyridin-5-yl]oxy)methyl]phenyl]-5-fluoro-2-methoxypyridine-3-sulfonamide] | < 50
COc1ncc(F)cc1S(=O)(=O)Nc1ccc(F)c(OCc2cnc3[nH]nc(C)c3c2)c1F [Compound 45, N-[2,4-difluoro-3-([3-methyl-1H-pyrazolo[3,4-b]pyridin-5-yl]methoxy)phenyl]-5-fluoro-2-methoxypyridine-3-sulfonamide] | < 50
CCc1n[nH]c2ncc(OCc3c(F)ccc(NS(=O)(=O)c4cc(Cl)cnc4OC)c3F)cc12 [Compound 40, 5-chloro-N-[3-[([3-ethyl-1H-pyrazolo[3,4-b]pyridin-5-yl]oxy)methyl]-2,4-difluorophenyl]-2-methoxypyridine-3-sulfonamide] | < 50
